Test results reported in ChEMBL document CHEMBL1201862, “PubChem BioAssay data set” (2004).
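Each compound was tested at five concentrations against cells in 96-well plates for 48 hours. The concentration for 50% growth inhibition is given as GI50.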 Activity calls are given as the source filed them. Rule as the data show it: active = GI50 up to about 1.1 µM and inactive = higher.

Columns and labels:
Test in all cases: NCI-60 cell line screen, 48 h
[1] = system: 786-0
[2] = system: A498
[3] = system: A549
[4] = system: ACHN
[5] = system: BT-549
[6] = system: CAKI-1
[7] = system: CCRF-CEM
[8] = system: COLO 205
[9] = system: DU-145
[10] = system: EKVX
[11] = system: HCC 2998
[12] = system: HCT-116
[13] = system: HCT-15
[14] = system: HL-60
[15] = system: HOP-62
[16] = system: HOP-92
[17] = system: HT-29
[18] = system: Hs-578T
[19] = system: IGROV-1
[20] = system: K562
[21] = system: KM12
[22] = system: LOX IMVI
[23] = system: M14
[24] = system: MCF7
[25] = system: MDA-MB-231
[26] = system: MDA-MB-435
[27] = system: MDA-N
[28] = system: MOLT-4
[29] = system: Malme-3M
[30] = system: NCI-H226
[31] = system: NCI-H23
[32] = system: NCI-H460
[33] = system: NCI-H522
[34] = system: NCI/ADR-RES
[35] = system: OVCAR-3
[36] = system: OVCAR-4
[37] = system: OVCAR-5
[38] = system: OVCAR-8
[39] = system: PC-3
[40] = system: RPMI-8226
[41] = system: RXF 393
[42] = system: SF-268
[43] = system: SF-295
[44] = system: SF-539
[45] = system: SK-MEL-28
[46] = system: SK-MEL-2
[47] = system: SK-MEL-5
[48] = system: SK-OV-3
[49] = system: SN12C
[50] = system: SNB-19
[51] = system: SNB-75
[52] = system: SR
[53] = system: SW-620
[54] = system: T47D
[55] = system: TK-10
[56] = system: U-251
[57] = system: UACC-257
[58] = system: UACC-62
[59] = system: UO-31

## CC(C)C(Br)CC/C(CBr)=C(\Cl)CCl (stereo not drawn)
[1]
  GI50: 1.81 µM (inactive)
[2]
  GI50: 18.6 µM (inactive)
[3]
  GI50: 16.3 µM (inactive)
[4]
  GI50: 15 µM (inactive)
[5]
  GI50: 1.78 µM (inactive)
[6]
  GI50: 4.98 µM (inactive)
[7]
  GI50: 0.135 µM (active)
[8]
  GI50: 3.4 µM (inactive)
[9]
  GI50: 12.6 µM (inactive)
[10]
  GI50: 17.9 µM (inactive)
[11]
  GI50: 13.4 µM (inactive)
[12]
  GI50: 2 µM (inactive)
[13]
  GI50: 2.11 µM
[14]
  GI50: 0.585 µM (active)
[15]
  GI50: 16.3 µM (inactive)
[16]
  GI50: 2.06 µM (inactive)
[17]
  GI50: 2.07 µM (inactive)
[18]
  GI50: 3.11 µM (inactive)
[19]
  GI50: 1.89 µM (inactive)
[20]
  GI50: 0.682 µM (active)
[21]
  GI50: 5.61 µM (inactive)
[22]
  GI50: 0.355 µM (active)
[23]
  GI50: 1.79 µM (inactive)
[24]
  GI50: 6.15 µM (inactive)
[25]
  GI50: 2.64 µM (inactive)
[26]
  GI50: 2.35 µM (inactive)
[27]
  GI50: 1.85 µM (inactive)
[28]
  GI50: 0.589 µM (active)
[29]
  GI50: 5.37 µM (inactive)
[30]
  GI50: 2.75 µM (inactive)
[31]
  GI50: 3.19 µM (inactive)
[32]
  GI50: 12.5 µM (inactive)
[33]
  GI50: 0.689 µM (active)
[34]
  GI50: 3.33 µM (inactive)
[35]
  GI50: 3.3 µM (inactive)
[36]
  GI50: 2.5 µM (inactive)
[37]
  GI50: 10.4 µM (inactive)
[38]
  GI50: 3.1 µM (inactive)
[39]
  GI50: 6.08 µM (inactive)
[40]
  GI50: 2 µM (inactive)
[41]
  GI50: 1.81 µM (inactive)
[42]
  GI50: 4.37 µM (inactive)
[43]
  GI50: 15.1 µM (inactive)
[44]
  GI50: 3.59 µM (inactive)
[45]
  GI50: 2.83 µM (inactive)
[46]
  GI50: 2.19 µM (inactive)
[47]
  GI50: 1.79 µM (inactive)
[48]
  GI50: 2.94 µM (inactive)
[49]
  GI50: 2.99 µM (inactive)
[50]
  GI50: 16.9 µM (inactive)
[51]
  GI50: 5.19 µM (inactive)
[52]
  GI50: 0.598 µM (active)
[53]
  GI50: 1.82 µM (inactive)
[54]
  GI50: 1.63 µM (inactive)
[55]
  GI50: 7.93 µM (inactive)
[56]
  GI50: 6.25 µM (inactive)
[57]
  GI50: 3.03 µM (inactive)
[58]
  GI50: 2.49 µM (inactive)
[59]
  GI50: 6.71 µM (inactive)

## NCC(O)CNC(=O)c1ccc(-c2ccc(-c3ccc(C(=O)NCC(O)CN)cc3)o2)cc1 (stereo not drawn)
[1]
  GI50: 23.3 µM (inactive)
[2]
  GI50: 25 µM (inactive)
[3]
  GI50: 37.4 µM (inactive)
[4]
  GI50: 45.9 µM (inactive)
[5]
  GI50: 32.7 µM (inactive)
[6]
  GI50: 81.7 µM (inactive)
[7]
  GI50: > 100 µM (inactive)
[8]
  GI50: 81.8 µM (inactive)
[9]
  GI50: 22 µM (inactive)
[10]
  GI50: 27.7 µM (inactive)
[11]
  GI50: 25.1 µM (inactive)
[12]
  GI50: 22.4 µM (inactive)
[13]
  GI50: 57.8 µM
[14]
  GI50: > 100 µM (inactive)
[15]
  GI50: 25.3 µM (inactive)
[16]
  GI50: 22.2 µM (inactive)
[17]
  GI50: > 100 µM (inactive)
[18]
  GI50: 25.3 µM (inactive)
[19]
  GI50: 30.8 µM (inactive)
[20]
  GI50: > 100 µM (inactive)
[21]
  GI50: 51.2 µM (inactive)
[22]
  GI50: 45 µM (inactive)
[23]
  GI50: > 100 µM (inactive)
[24]
  GI50: 32.8 µM (inactive)
[25]
  GI50: 24.5 µM (inactive)
[26]
  GI50: > 100 µM (inactive)
[27]
  GI50: > 100 µM (inactive)
[28]
  GI50: > 100 µM (inactive)
[29]
  GI50: 21.7 µM (inactive)
[30]
  GI50: 22.6 µM (inactive)
[31]
  GI50: 36.1 µM (inactive)
[32]
  GI50: 59 µM (inactive)
[33]
  GI50: 33.3 µM (inactive)
[34]
  GI50: > 100 µM (inactive)
[35]
  GI50: 21.4 µM (inactive)
[36]
  GI50: 36.5 µM (inactive)
[37]
  GI50: > 100 µM (inactive)
[38]
  GI50: 29.6 µM (inactive)
[39]
  GI50: 21.2 µM (inactive)
[40]
  GI50: > 100 µM (inactive)
[41]
  GI50: 18.9 µM (inactive)
[42]
  GI50: 28.2 µM (inactive)
[43]
  GI50: 23.5 µM (inactive)
[44]
  GI50: 19.1 µM (inactive)
[45]
  GI50: > 100 µM (inactive)
[46]
  GI50: 53.7 µM (inactive)
[47]
  GI50: 33.3 µM (inactive)
[48]
  GI50: 23.9 µM (inactive)
[49]
  GI50: 25.1 µM (inactive)
[50]
  GI50: 22 µM (inactive)
[51]
  GI50: 25.8 µM (inactive)
[52]
  GI50: 67.5 µM (inactive)
[53]
  GI50: > 100 µM (inactive)
[54]
  GI50: 34.6 µM (inactive)
[55]
  GI50: 18 µM (inactive)
[56]
  GI50: 21.5 µM (inactive)
[57]
  GI50: > 100 µM (inactive)
[58]
  GI50: 41.8 µM (inactive)
[59]
  GI50: 49.2 µM (inactive)
